Active and inactive are the calls of the source. The calls are words filed in the database; no cut-off is given here.
Assays:
[1] = Toxicity in BALB/c mouse xenografted with human PC-3 cells assessed as change in creatinine level at 5 mg/kg,ip administrated once every 4 days for 24 days by automatic biochemical analyzer; format: organism-based; details: in vivo, 576 h, time 24 day
[2] = target: T1, Son of sevenless homolog 1 (Homo sapiens) (UniProt Q07889); assay: Inhibition of SOS1 in human PC-3 cells assessed as downregulation of AKT phosphorylation at 12.5 uM incubated for 15 mins by Western blotting analysis; format: cell-based
T1 sequence (whole entry): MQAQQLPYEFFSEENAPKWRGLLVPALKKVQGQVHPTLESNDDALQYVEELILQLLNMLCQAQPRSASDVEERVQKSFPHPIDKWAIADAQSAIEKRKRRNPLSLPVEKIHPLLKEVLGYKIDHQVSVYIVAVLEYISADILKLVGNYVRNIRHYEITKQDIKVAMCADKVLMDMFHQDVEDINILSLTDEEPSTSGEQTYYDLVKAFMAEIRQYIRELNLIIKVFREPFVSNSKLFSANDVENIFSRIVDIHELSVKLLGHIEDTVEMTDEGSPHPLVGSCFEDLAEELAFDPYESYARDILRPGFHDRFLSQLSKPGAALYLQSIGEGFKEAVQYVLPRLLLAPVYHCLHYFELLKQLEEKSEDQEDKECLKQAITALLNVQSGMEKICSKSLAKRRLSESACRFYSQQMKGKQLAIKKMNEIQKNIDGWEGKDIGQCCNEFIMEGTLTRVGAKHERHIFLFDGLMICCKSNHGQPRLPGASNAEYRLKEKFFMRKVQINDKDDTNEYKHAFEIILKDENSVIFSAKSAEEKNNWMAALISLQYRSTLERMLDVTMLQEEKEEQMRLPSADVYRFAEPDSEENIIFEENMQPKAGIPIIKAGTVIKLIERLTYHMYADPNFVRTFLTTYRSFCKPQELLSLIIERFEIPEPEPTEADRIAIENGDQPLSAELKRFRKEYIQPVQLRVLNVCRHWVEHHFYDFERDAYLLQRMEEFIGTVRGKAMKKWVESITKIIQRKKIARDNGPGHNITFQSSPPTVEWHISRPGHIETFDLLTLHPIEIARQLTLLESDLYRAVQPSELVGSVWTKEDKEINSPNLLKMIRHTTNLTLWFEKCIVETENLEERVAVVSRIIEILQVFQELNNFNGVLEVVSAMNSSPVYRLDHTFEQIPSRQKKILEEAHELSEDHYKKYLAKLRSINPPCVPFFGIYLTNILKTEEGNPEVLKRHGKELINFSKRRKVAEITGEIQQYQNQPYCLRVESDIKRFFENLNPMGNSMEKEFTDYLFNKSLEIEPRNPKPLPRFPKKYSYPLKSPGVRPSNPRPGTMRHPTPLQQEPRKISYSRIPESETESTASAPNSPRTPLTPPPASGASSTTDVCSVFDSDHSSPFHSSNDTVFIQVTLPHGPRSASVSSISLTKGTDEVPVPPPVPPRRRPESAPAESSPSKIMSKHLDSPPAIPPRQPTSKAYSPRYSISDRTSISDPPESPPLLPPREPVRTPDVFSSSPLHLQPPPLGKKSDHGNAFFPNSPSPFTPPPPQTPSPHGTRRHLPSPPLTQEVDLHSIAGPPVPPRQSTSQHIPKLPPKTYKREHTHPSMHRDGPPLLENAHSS

[3] = Toxicity in BALB/c mouse xenografted with human PC-3 cells assessed as spleen pathological change at 5 mg/kg,ip administrated once every 4 days for 24 days by hematoxylin and eosin staining based analysis; format: organism-based; details: in vivo, 576 h, time 24 day
PC-3 = assay: Induction of cell cycle arrest in human PC-3 cells assessed as accumulation of cells at S phase at 12.5 uM by PI staining based flow cytometry (reference value: 16.58%); format: functional
[4] = target: Epidermal growth factor receptor (Homo sapiens, UniProt P00533); assay: Inhibition of EGFR (unknown origin) using ultra ULight GT peptide as substrate at 10 uM incubated for 2 hrs relative to control
[5] = Toxicity in BALB/c mouse xenografted with human PC-3 cells assessed as change in body weight at 20 mg/kg,ip administrated once every 4 days for 24 days; format: organism-based; details: in vivo, 576 h, time 24 day

Sequence of Epidermal growth factor receptor (P00533 whole entry): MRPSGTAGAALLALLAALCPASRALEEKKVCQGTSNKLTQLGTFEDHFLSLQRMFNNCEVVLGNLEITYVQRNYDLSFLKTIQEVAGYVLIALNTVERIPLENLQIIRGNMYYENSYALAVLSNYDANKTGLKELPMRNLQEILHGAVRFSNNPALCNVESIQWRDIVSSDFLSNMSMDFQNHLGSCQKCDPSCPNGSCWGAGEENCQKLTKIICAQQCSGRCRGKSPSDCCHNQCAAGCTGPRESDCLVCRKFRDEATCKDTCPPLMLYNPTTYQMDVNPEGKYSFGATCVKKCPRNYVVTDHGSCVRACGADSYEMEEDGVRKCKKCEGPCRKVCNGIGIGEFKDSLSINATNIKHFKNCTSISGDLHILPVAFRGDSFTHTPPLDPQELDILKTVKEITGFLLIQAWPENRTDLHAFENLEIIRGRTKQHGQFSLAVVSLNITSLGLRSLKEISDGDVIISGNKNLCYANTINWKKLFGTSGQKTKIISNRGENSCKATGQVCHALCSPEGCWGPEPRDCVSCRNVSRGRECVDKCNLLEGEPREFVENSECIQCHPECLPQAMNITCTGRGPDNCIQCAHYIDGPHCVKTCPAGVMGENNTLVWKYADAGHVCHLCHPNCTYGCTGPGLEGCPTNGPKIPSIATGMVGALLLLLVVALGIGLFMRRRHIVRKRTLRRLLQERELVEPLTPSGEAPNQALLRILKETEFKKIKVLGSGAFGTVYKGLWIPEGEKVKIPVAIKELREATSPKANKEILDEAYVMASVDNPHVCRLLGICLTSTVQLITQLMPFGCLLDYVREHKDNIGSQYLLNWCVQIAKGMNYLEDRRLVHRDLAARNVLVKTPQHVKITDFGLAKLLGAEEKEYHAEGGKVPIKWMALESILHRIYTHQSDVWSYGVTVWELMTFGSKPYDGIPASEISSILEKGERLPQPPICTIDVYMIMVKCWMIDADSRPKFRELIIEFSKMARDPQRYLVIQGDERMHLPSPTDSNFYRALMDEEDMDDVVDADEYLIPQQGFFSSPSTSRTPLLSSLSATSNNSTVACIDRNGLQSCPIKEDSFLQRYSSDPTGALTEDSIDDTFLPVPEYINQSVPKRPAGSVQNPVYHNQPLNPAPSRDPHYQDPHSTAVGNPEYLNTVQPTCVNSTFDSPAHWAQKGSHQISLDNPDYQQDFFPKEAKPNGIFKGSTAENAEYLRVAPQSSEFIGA

## COc1cc2ncnc(N[C@H](C)c3cccc(F)c3)c2cc1OC1CCOCC1
[1]
  Activity: Non-Toxic
[2]
  inhibition: Active
[3]
  Activity: Toxic
PC-3
  Activity: 6.67%
[4]
  inhibition: 100%
[5]
  Activity: Toxic

Source: ChEMBL document CHEMBL5543153, “Discovery of a Potent Dual Son of Sevenless 1 (SOS1) and Epidermal Growth Factor Receptor (EGFR) Inhibitor for the Treatment of Prostate Cancer” (J Med Chem, 2024)
